Measured values: the NIST ThermoML archive (doi:10.1016/j.jct.2017.12.011)
Where “and” joins values, the source holds several entries; their conditions need not be identical. Equal entries are not always repeated. Numbers after ± are expanded uncertainties.

Details: Pendant drop shape

- surface tension liquid-gas (271.2 K): 76.43 ± 1.8 mN/m and 76.39 ± 1.9 mN/m
- surface tension liquid-gas (274.2 K): 75.74 ± 1.8 mN/m and 75.89 ± 1.5 mN/m
- surface tension liquid-gas (276.2 K): 75.11 ± 1.5 mN/m and 75.34 ± 1.9 mN/m
- surface tension liquid-gas (278.2 K): 74.61 ± 2 mN/m and 74.98 ± 1.9 mN/m
- surface tension liquid-gas (280.2 K): 74.5 ± 1.4 mN/m and 74.21 ± 1.3 mN/m
Structure (SMILES): O [water]
